The values that follow are results of earlier work, collected in US5714342A, “Compositions for the detection of protease in biological samples and methods of use therefo” (OncoImmunin, Inc., priority 1995, dated 1998).

For this series the following is noted: literature (Forster and Konig 1957; Arbeloa and Ojeda 1982); cited from earlier work.
With `CCN(CC)c1ccc2c(-c3ccccc3C(=O)O)c3ccc(=[N+](CC)CC)cc-3oc2c1` [Rhodamine B], the “concentration at which ground-state dimerization of free dye in solution was observed” value was “higher than 6×10^-4 M”.

Regarding `O=C1OC2(c3ccc(O)cc3Oc3cc(O)ccc32)c2ccccc21` [fluorescein], the “concentration at which ground-state dimerization of free dye in solution was observed” value is listed as greater than 0.74 M.

`O=C1OC2(c3ccccc31)c1cc(Br)c(O)c(Br)c1Oc1c2cc(Br)c(O)c1Br` [Eosin]: the “concentration at which ground-state dimerization of free dye in solution was observed” value is “higher than 2.8×10^-2 M”.
